# PubChem BioAssay (NCI)
#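 Briefly, cells in 96-well plates were exposed to five compound concentrations for 48 h, and endpoints were estimated by linear interpolation. GI50 = concentration required for 50% inhibition of growth. TGI marks complete inhibition of growth.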
# Key:
# Assay in all cases: growth of human tumour cells (NCI), 48 h
# [1] = test system: 786-0 renal
# [2] = test system: A498 renal
# [3] = test system: A549 NSCLC
# [4] = test system: ACHN renal
# [5] = test system: BT-549 breast
# [6] = test system: CAKI-1 renal
# [7] = test system: CCRF-CEM leukemia
# [8] = test system: COLO 205 colon
# [9] = test system: DU-145 prostate
# [10] = test system: EKVX NSCLC
# [11] = test system: HCC-2998 colon
# [12] = test system: HCT-116 colon
# [13] = test system: HCT-15 colon
# [14] = test system: HL-60(TB) leukemia
# [15] = test system: HOP-62 NSCLC
# [16] = test system: HOP-92 NSCLC
# [17] = test system: HS 578T breast
# [18] = test system: HT29 colon
# [19] = test system: IGROV1 ovarian
# [20] = test system: K-562 leukemia
# [21] = test system: KM12 colon
# [22] = test system: LOX IMVI melanoma
# [23] = test system: M14 melanoma
# [24] = test system: MALME-3M melanoma
# [25] = test system: MCF7 breast
# [26] = test system: MDA-MB-231 breast
# [27] = test system: MDA-MB-435
# [28] = test system: MDA-MB-468 breast
# [29] = test system: MOLT-4 leukemia
# [30] = test system: NCI-H226 lung
# [31] = test system: NCI-H23 lung
# [32] = test system: NCI-H460 lung
# [33] = test system: NCI-H522 lung
# [34] = test system: NCI/ADR-RES ovarian
# [35] = test system: OVCAR-3 ovarian
# [36] = test system: OVCAR-4 ovarian
# [37] = test system: OVCAR-5 ovarian
# [38] = test system: OVCAR-8 ovarian
# [39] = test system: PC-3 prostate
# [40] = test system: RPMI-8226 leukemia
# [41] = test system: RXF 393 renal
# [42] = test system: SF-268 CNS
# [43] = test system: SF-295 CNS
# [44] = test system: SF-539 CNS
# [45] = test system: SK-MEL-2 melanoma
# [46] = test system: SK-MEL-28 melanoma
# [47] = test system: SK-MEL-5 melanoma
# [48] = test system: SK-OV-3 ovarian
# [49] = test system: SN12C renal
# [50] = test system: SNB-19 CNS
# [51] = test system: SNB-75 CNS
# [52] = test system: SR leukemia
# [53] = test system: SW-620 colon
# [54] = test system: T-47D breast
# [55] = test system: TK-10 renal
# [56] = test system: U251 CNS
# [57] = test system: UACC-257 melanoma
# [58] = test system: UACC-62 melanoma
# [59] = test system: UO-31 renal
smiles,measurement,setting,value
CN(C)c1ccnc(CNCCSC2(c3ccc(C(F)(F)F)cc3)c3ccccc3C=Cc3ccccc32)c1,GI50,[1],2.49 µM
same,TGI,[1],7.12 µM
same,GI50,[2],11.9 µM
same,TGI,[2],27.2 µM
same,GI50,[3],1.35 µM
same,TGI,[3],5.71 µM
same,GI50,[4],3.21 µM
same,TGI,[4],14.6 µM
same,GI50,[5],3.19 µM
same,TGI,[5],9.62 µM
same,GI50,[6],4.37 µM
same,TGI,[6],16.5 µM
same,GI50,[7],1.06 µM
same,TGI,[7],13.4 µM
same,GI50,[8],0.927 µM
same,TGI,[8],2.9 µM
same,GI50,[9],3.12 µM
same,TGI,[9],10.8 µM
same,GI50,[10],1.77 µM
same,TGI,[10],14.2 µM
same,GI50,[11],0.91 µM
same,TGI,[11],2.63 µM
same,GI50,[12],0.611 µM
same,TGI,[12],12.5 µM
same,GI50,[13],1.12 µM
same,TGI,[13],6.62 µM
same,GI50,[14],1.2 µM
same,TGI,[14],3.91 µM
same,GI50,[15],2.69 µM
same,TGI,[15],13.9 µM
same,GI50,[16],2.17 µM
same,TGI,[16],10.2 µM
same,GI50,[17],1.57 µM
same,TGI,[17],6.75 µM
same,GI50,[18],1.79 µM
same,TGI,[18],5.65 µM
same,GI50,[19],2.58 µM
same,TGI,[19],16 µM
same,GI50,[20],2.8 µM
same,TGI,[20],14 µM
same,GI50,[21],1.41 µM
same,TGI,[21],5.33 µM
same,GI50,[22],2.2 µM
same,TGI,[22],6.16 µM
same,GI50,[23],0.598 µM
same,TGI,[23],2.69 µM
same,GI50,[24],2.35 µM
same,TGI,[24],6.51 µM
same,GI50,[25],0.853 µM
same,TGI,[25],4.19 µM
same,GI50,[26],1.11 µM
same,TGI,[26],3.36 µM
same,GI50,[27],0.605 µM
same,TGI,[27],1.34 µM
same,GI50,[28],0.74 µM
same,TGI,[28],1.99 µM
same,GI50,[29],1.12 µM
same,TGI,[29],5.41 µM
same,GI50,[30],5.45 µM
same,TGI,[30],16.3 µM
same,GI50,[31],2.8 µM
same,TGI,[31],9.31 µM
same,GI50,[32],1.09 µM
same,TGI,[32],3.86 µM
same,GI50,[33],0.771 µM
same,TGI,[33],2.49 µM
same,GI50,[34],2 µM
same,TGI,[34],4.39 µM
same,GI50,[35],1.73 µM
same,TGI,[35],5.93 µM
same,GI50,[36],5.33 µM
same,TGI,[36],16.3 µM
same,GI50,[37],2.74 µM
same,TGI,[37],11.2 µM
same,GI50,[38],1.18 µM
same,TGI,[38],4.73 µM
same,GI50,[39],1.49 µM
same,TGI,[39],11.3 µM
same,GI50,[40],1.03 µM
same,TGI,[40],4.41 µM
same,GI50,[41],1.97 µM
same,TGI,[41],7.54 µM
same,GI50,[42],3.67 µM
same,TGI,[42],16.6 µM
same,GI50,[43],1.6 µM
same,TGI,[43],6.56 µM
same,GI50,[44],1.12 µM
same,TGI,[44],3.18 µM
same,GI50,[45],1.2 µM
same,TGI,[45],3.72 µM
same,GI50,[46],4.34 µM
same,TGI,[46],9.09 µM
same,GI50,[47],1.96 µM
same,TGI,[47],5.43 µM
same,GI50,[48],4.38 µM
same,TGI,[48],13.7 µM
same,GI50,[49],2.16 µM
same,TGI,[49],8.08 µM
same,GI50,[50],3.53 µM
same,TGI,[50],17.3 µM
same,GI50,[51],1.76 µM
same,TGI,[51],6.61 µM
same,GI50,[52],0.723 µM
same,TGI,[52],4.15 µM
same,GI50,[53],1 µM
same,TGI,[53],4.45 µM
same,GI50,[54],4.63 µM
same,TGI,[54],15.7 µM
same,GI50,[55],7.1 µM
same,TGI,[55],21.3 µM
same,GI50,[56],1.11 µM
same,TGI,[56],4.03 µM
same,GI50,[57],4.33 µM
same,TGI,[57],11.2 µM
same,GI50,[58],3.41 µM
same,TGI,[58],8.81 µM
same,GI50,[59],3.91 µM
same,TGI,[59],16.2 µM
